From patent EP0755931A1, “Dihydropyridine and pyridine derivatives and process for their preparation” (priority 1995, dated 1997) come the findings set out here.

For this experiment, the target named is T1, human placental aromatase (Homo sapiens, UniProt P11511).
T1 construct: utilizes the human placental microsomal fraction as enzyme source; from tissue; host or cells: human placenta, microsomal fraction
T1 sequence (P11511 1-503): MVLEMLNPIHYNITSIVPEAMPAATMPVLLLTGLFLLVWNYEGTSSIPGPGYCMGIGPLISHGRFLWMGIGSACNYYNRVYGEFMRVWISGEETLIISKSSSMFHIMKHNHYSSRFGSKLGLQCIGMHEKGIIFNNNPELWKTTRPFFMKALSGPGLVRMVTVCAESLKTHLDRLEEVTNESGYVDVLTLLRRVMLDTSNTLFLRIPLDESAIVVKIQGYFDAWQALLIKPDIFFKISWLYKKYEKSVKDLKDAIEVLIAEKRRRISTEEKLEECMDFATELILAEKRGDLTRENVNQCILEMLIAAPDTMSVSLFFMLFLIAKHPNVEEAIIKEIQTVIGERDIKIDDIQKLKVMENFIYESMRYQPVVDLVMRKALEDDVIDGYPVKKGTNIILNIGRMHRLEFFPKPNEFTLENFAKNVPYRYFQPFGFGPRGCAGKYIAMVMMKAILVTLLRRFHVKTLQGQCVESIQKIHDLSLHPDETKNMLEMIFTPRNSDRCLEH
The experiment can be described thus: Inhibition of human placental aromatase (in vitro test of Thompson and Siiteri, 3H2O release from [1β-3H]androstenedione). Type of experiment: biochemical. The note with it: human placental microsomal fraction as enzyme source; compounds incubated for 15 min at 37°C with 50 nM [1β-3H]androstenedione in the presence of NADPH. The procedure: Estrogens are also involved in the pathogenesis of benign prostatic hyperplasia. Endogenous estrogens are ultimately formed from either androstenedione or testosterone as immediate precursors. The reaction of central importance is the aromatization of the steroidic ring A, which is performed by the enzyme aromatase. […] In this test the aromatization rate of androstenedione into estrone was evaluated by incubating (1β-^3H) androstenedione (50 nM) in the presence of NADPH with the enzyme preparation and by measuring the amount of^3H2O formed during 15 min incubation at 37°C.

Broadly, the IC50 is the concentration needed to halve the response being measured. `CC1=C(C#N)C(c2cccc(-n3ccnc3)c2)C(C#N)=C(C)N1` [FCE 28718, 4-(3-1H-imidazol-1-yl-phenyl)-2,6-dimethyl-1,4-dihydropyridine-3,5-dicarbonitrile]: the IC50 was 1.7 nM.
As to `CCOC(=O)C1=C(C)NC(C)=C(C#N)C1c1cccc(-n2ccnc2)c1` (racemic) [FCE 29013, 4-(3-1H-imidazol-1-yl-phenyl)-2,6-dimethyl-1,4-dihydropyridine-3-carbonitrile-5-carboxylic acid ethyl ester], the IC50 came to 1.5 nM.
In the case of `Cc1nc(C)c(C#N)c(-c2cccc(-n3ccnc3)c2)c1C#N` [FCE 28717, 4-(3-1H-imidazol-1-yl-phenyl)-2,6-dimethylpyridine-3,5-dicarbonitrile] it was 12 nM.
On to `CC1=C(C#N)C(c2cccc(-n3cncn3)c2)C(C#N)=C(C)N1` [FCE 29138, 4-[3-(1,2,4)triazol-1-yl-phenyl]-2,6-dimethyl-1,4-dihydropyridine-3,5-dicarbonitrile], for which the IC50 was determined as 25 nM.
